The results in this text go back to patent US20120107385A1, “METHOD OF TREATING CONDITIONS ASSOCIATED WITH OVERACTIVE BLADDER” (priority 2010, published 2012).

This data set is described as follows: Plasma oxybutynin and N-desethyloxybutynin following oral and intravaginal administration in dogs (14 day study).

Experimental: A study was conducted to determine the levels of oxybutynin and its active metabolite, N-desethyloxybutynin, present in plasma following oral and intravaginal administration of oxybutynin in dogs.
A 14 day study was conducted, where 8 young adult females were randomly assigned to 4 groups of 2 dogs each.

`CCN(CC)CC#CCOC(=O)C(O)(c1ccccc1)C1CCCCC1` (centres unmarked) [oxybutynin, 4-diethylaminobut-2-ynyl2-cyclohexyl-2-hydroxy-2-phenyl-ethanoate]: the “plasma level of oxybutynin at 8 h or more after oral dosing” value (oral 10 mg/day) was at most 2.75 ng/mL. Moreover, the “time after dosing at which Cmax of oxybutynin was achieved” value (plasma) was 3 h.
